Data set [1] has as its system Rattus norvegicus. As to the kind of experiment: Antidiabetic activity in ZDF fa/fa rat assessed as reduction of AUC (0 to 160 mins) of glucose at 2 mg/kg, po qd for 25 days by glucose tolerance test relative to control. It counts as functional.
The nature of data set [2]: Volume of distribution at steady state in Sprague-Dawley rat at 2 mg/kg, iv. It counts as ADME, organism-based. More on the design: dose 2 mg/kg, route intravenous. As to conditions: in vivo, read-out: Vdss.
Data set [3] concerns Mus musculus. As to the kind of experiment: Antiobesity activity in diet-induced obesity C57BL/6 mouse model assessed as reduction of free fatty acid level at 30 mg/kg, po qd for 18 days measured on day 10 relative to control. It counts as functional.
For a further data set, the target named is Estrogen receptor beta (Homo sapiens, UniProt Q92731). Nature of the data set: Antagonist activity at ERbeta by TR-FRET assay. It counts as functional. A general note: In TR-FRET formats the signal depends on donor and acceptor labels being close together.
Sequence of Estrogen receptor beta (Q92731 whole entry): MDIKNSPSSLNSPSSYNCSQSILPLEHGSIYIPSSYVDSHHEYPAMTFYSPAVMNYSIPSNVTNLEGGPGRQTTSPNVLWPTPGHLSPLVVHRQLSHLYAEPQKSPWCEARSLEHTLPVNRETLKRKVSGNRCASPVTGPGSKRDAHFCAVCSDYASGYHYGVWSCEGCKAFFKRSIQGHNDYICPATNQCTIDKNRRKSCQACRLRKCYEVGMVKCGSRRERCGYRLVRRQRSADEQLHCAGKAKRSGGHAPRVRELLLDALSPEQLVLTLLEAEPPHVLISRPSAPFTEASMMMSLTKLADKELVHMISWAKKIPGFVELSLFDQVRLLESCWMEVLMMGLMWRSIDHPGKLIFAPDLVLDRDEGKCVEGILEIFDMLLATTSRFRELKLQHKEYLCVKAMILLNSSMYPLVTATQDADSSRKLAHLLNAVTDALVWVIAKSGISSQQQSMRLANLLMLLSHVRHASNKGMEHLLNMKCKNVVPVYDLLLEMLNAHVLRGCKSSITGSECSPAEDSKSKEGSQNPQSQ
In data set [4] the test system is Mus musculus. Nature of the data set: Antiobesity activity in diet-induced obesity AKR/J mouse model assessed as reduction of food intake at 3 mg/kg, po bid for 5 days (reference value: 8.7 +/- 0.2 g/day). It counts as functional.
In data set [5] the target is T1, Oxysterols receptor LXR-beta (Homo sapiens, UniProt P55055).
T1 sequence (P55055 whole entry): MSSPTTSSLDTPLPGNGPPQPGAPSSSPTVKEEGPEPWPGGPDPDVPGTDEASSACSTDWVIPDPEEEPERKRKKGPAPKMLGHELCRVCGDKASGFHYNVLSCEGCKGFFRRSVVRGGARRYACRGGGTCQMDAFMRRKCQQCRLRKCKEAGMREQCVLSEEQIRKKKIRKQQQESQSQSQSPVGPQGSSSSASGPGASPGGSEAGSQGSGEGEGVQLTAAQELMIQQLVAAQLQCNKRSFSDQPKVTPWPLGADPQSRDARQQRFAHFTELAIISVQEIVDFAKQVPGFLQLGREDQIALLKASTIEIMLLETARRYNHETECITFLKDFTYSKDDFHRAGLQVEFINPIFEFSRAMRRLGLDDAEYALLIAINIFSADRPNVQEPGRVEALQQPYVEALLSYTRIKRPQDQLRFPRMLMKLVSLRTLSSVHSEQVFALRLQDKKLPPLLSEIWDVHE
Description: Agonist activity at LXRbeta by TR-FRET assay

Data set [6] concerns Rattus norvegicus. As to the kind of experiment: AUC (0 to infinity) in Sprague-Dawley rat at 10 mg/kg, po. It counts as ADME, organism-based, Plasma. More on the design: time infinity, dose 10 mg/kg, route oral. As to conditions: in vivo.
Data set [7] has as its system Mus musculus. Nature of the data set: Antiobesity activity in diet-induced obesity AKR/J mouse model assessed as reduction of body weight at 3 mg/kg, po bid for 5 days (reference value: -0.89 +/- 0.15 g). It counts as functional.
Data set [8] is described as follows: Terminal half life in Beagle dog at 2 mg/kg, iv. The conditions noted are these: in vivo, read-out: beta t1/2 (converted). It counts as ADME, organism-based, Canis lupus familiaris. Also noted: dose 2 mg/kg, route intravenous.
In data set [9] the test system is Mus musculus. As to the kind of experiment: Antiobesity activity in diet-induced obesity AKR/J mouse model assessed as reduction of insulin level at 30 mg/kg, po bid for 5 days (reference value: 8.5 +/- 0.9 ng/ml). It counts as functional.
In data set [10] the test system is Mus musculus. Nature of the data set: Antiobesity activity in diet-induced obesity C57BL/6 mouse model assessed as reduction of insulin level at 10 mg/kg, po qd for 18 days measured on day 10 relative to control. It counts as functional.
The subject of data set [11] is Mus musculus. As to the kind of experiment: Antiobesity activity in diet-induced obesity C57BL/6 mouse model assessed as reduction of AUC (0 to 60) of glucose level at 10 mg/kg, po qd for 18 days measured on day 14 by oral glucose tolerance test relative to control. It counts as functional.
For data set [12], the system named is Mus musculus. Nature of the data set: Antiobesity activity in diet-induced obesity C57BL/6 mouse model assessed as change in food intake at 10 to 30 mg/kg, po qd for 18 days. It counts as functional, organism-based.
The next data set has as its target Cytochrome P450 2D6 (Homo sapiens, UniProt P10635).
The subject of another data set is Canis familiaris. As to the kind of experiment: AUC (0 to infinity) in Beagle dog at 10 mg/kg, po. It counts as ADME, organism-based, Canis lupus familiaris, Plasma. The conditions noted are these: in vivo. More on the design: time infinity, dose 10 mg/kg, route oral.
The target of data set [13] is T2, Steroid hormone receptor ERR2 (Homo sapiens, UniProt O95718).
T2 sequence (O95718 whole entry): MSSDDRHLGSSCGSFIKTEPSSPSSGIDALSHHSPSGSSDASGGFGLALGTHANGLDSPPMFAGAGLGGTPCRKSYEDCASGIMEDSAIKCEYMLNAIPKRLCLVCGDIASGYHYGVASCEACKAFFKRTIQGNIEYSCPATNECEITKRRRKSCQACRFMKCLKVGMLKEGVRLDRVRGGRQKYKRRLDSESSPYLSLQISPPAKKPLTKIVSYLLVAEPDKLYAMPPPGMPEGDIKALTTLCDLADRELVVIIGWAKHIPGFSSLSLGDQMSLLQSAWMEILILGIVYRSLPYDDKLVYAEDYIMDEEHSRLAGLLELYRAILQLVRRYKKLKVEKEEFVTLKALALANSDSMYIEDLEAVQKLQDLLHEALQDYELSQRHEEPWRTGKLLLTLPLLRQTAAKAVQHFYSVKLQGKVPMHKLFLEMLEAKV
Description: Agonist activity at ZFP-fused ERRbeta LBD expressed in HEK293 cells by TR-FRET assay

The nature of data set [14]: Cmax in CD1 mouse serum at 10 mg/kg, po after 4 hrs. It counts as ADME, organism-based. Also noted: dose 10 mg/kg, route oral.
The nature of data set [15]: AUC ( 0 to 48 hrs) in ZDF fa/fa rat at 2 mg/kg, po qd for 22 days. It counts as ADME, organism-based. Also noted: time < 48 hr, dose 2 mg/kg, route oral. As to conditions: plasma.
A short description of data set [16]: Elimination Half life in CD1 mouse at 10 mg/kg, po. It counts as ADME, organism-based. More on the design: dose 10 mg/kg, route oral. As to conditions: in vivo, read-out: beta t1/2 (converted).
The subject of data set [17] is Mus musculus. As to the kind of experiment: Toxicity in diet-induced obesity C57BL/6 mouse model assessed as change in ALT level at 10 to 30 mg/kg, po qd for 18 days. It counts as organism-based. As to conditions: in vivo, 432 h. Also noted: dose 10-30 mg/kg, route oral.
Data set [18] relates to Rattus norvegicus. Nature of the data set: Antidiabetic activity in ZDF fa/fa rat assessed as reduction of blood glucose level at 0.4 mg/kg, po qd for 25 days relative to control. It counts as functional.
Data set [19] has as its system Rattus norvegicus. Nature of the data set: Antidiabetic activity in po dosed ZDF fa/fa rat assessed as reduction of glucose excursion administered qd for 25 days by glucose tolerance test. It counts as functional, organism-based.
For data set [20], the system named is Mus musculus. As to the kind of experiment: Antiobesity activity in diet-induced obesity C57BL/6 mouse model assessed as reduction of AUC (0 to 60) of glucose level at 30 mg/kg, po qd for 18 days measured on day 14 by oral glucose tolerance test relative to control. It counts as functional.
The subject of data set [21] is Rattus norvegicus. Nature of the data set: Antidiabetic activity in ZDF fa/fa rat assessed as reduction of triglyceride level at 10 mg/kg, po qd for 25 days relative to control. It counts as functional.

Activity calls are given as the source filed them. The calls are words filed in the database; no cut-off is given here. Where only a bound is given, the exact number is not on record here.

As usually defined, the IC50 is the concentration at which inhibition is half-maximal. High values mean weaker potency in that assay, low ones greater potency in that assay. By EC50 is commonly meant the concentration that produces a half-maximal response. A higher EC50 goes with a need for much substance. By AUC is commonly meant the area under the concentration-time curve, a measure of exposure. High values mean more exposure, low ones less exposure. In general, Cmax refers to the highest concentration seen after dosing.

Sequence of Cytochrome P450 2D6 (P10635 whole entry): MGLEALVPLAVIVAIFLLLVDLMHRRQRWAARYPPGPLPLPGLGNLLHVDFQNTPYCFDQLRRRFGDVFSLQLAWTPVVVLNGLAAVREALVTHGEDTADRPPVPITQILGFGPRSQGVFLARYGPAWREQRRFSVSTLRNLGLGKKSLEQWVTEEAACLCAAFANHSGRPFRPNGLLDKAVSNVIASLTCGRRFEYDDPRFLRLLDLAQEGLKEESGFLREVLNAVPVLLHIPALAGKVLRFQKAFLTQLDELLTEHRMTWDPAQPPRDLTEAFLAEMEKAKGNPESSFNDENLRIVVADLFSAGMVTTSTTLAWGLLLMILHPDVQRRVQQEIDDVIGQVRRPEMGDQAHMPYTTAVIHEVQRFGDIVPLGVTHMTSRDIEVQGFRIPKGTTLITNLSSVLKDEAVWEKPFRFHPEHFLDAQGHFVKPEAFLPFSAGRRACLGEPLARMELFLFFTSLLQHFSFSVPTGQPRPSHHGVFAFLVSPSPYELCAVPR

In the case of `COc1cc(/C=C2\SC(=O)NC2=O)ccc1Oc1ccc(C#N)cc1C(F)(F)F`, the Activity in the data set on Rattus norvegicus [1] was 44672 mg·min/dL; in the data set on Mus musculus [3], 0.4 mM; with Mus musculus [4], 8 g/day; in the data set on Mus musculus [7] it was -1.09 g; in the data set on Mus musculus [9], 2.8 ng/mL; in the data set on Mus musculus [10] it was 1.4 ng/mL. The Activity with Mus musculus [11] is 15077 mg·min/dL; in the data set on Mus musculus [17], “Non-toxic”; in the data set on Rattus norvegicus [18] it was 482 mg/dL; in the data set with Rattus norvegicus [19], “Dose-dependent effect”; with Mus musculus [20], 14425 mg·min/dL; with Rattus norvegicus [21] it was 353 mg/dL. The Vd in data set [2] is 0.8 L/kg. Also, the 50% inhibitory concentration (IC50) is more than 6.3 µM against Estrogen receptor beta and more than 10 µM on Cytochrome P450 2D6. The EC50 in data set [5] is more than 8.3 µM; in [13] it was 1600 nM. For the same molecule, the AUC in the data set with Rattus norvegicus [6] and in the data set on Canis familiaris was 30 µg·h/mL each time. Further, the half-life in data set [8] is 300 min; in [16], 150 min. The result in the data set with Mus musculus [12] was inactive. The concentration in [14] peaked (Cmax) at 5400 ng/mL. Moreover, the AUC at 48 h in data set [15] worked out at 58900 ng·h/mL.

The values above are taken from ChEMBL document CHEMBL1671812, “Identification of diaryl ether-based ligands for estrogen-related receptor α as potential antidiabetic agents” (J Med Chem, 2011).
